Tests used:
blackgrass = assay: Test D preemergence; type: in vivo, Alopecurus myosuroides; conditions: Preemergence, scale 0 to 100
In short: (§1)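 Visual injury scored 0–100 (0 none, 100 complete control) against controls 14–21 days after treatment in a controlled growth environment. Chemicals were formulated in a non-phytotoxic solvent mixture containing surfactant, applied to silt loam soil preemergence or to 1- to 4-leaf plants postemergence.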

barley, winter = assay: Test D postemergence; type: in vivo, Hordeum vulgare; conditions: scale 0 to 100
In short: as §1

barley, spring = assay: Test D postemergence; type: in vivo, Hordeum vulgare; conditions: scale 0 to 100
In short: as §1

foxtail, green [1] = assay: Test D preemergence; type: in vivo, Setaria viridis; conditions: Preemergence, scale 0 to 100
In short: as §1

oilseed rape = assay: Test D preemergence; type: in vivo, Brassica napus; conditions: Preemergence, scale 0 to 100
Source text: (§2) Seeds of plant species selected from bluegrass (annual bluegrass, Poa annua), blackgrass (Alopecurus myosuroides), canarygrass (littleseed canarygrass, Phalaris minor), chickweed (common chickweed, Stellaria media), galium (catchweed bedstraw, Galium aparine), bromegrass, downy (downy bromegrass, Bromus tectorum), field poppy (Papaver rhoeas), field violet (Viola arvensis), foxtail, green (green foxtail, Setaria viridis), deadnettle (henbit deadnettle, Lamium amplexicaule), ryegrass, Italian (Italian ryegrass, Lolium multiflorum), kochia (Kochia scoparia), lambsquarters (Chenopodium album), oilseed rape (Brassica napus), pigweed (redroot pigweed, Amaranthus retroflexus), chamomile (scentless chamomile, Matricaria inodora), speedwell (bird's-eye speedwell, Veronica persica), barley, spring (spring barley, Hordeum vulgare), wheat, spring (spring wheat, Triticum aestivum), buckwheat, wild (wild buckwheat, Polygonum convolvulus), mustard, wild (wild mustard, Sinapis arvensis), oat, wild (wild oat, Avena fatua), radish, wild (wild radish, Raphanus raphanistrum), windgrass (Apera spica-venti), Russian thistle (Salsola kali), barley, winter (winter barley, Hordeum vulgare), and wheat, winter (winter wheat, Triticum aestivum) were planted into a silt loam soil and treated preemergence with test chemicals formulated in a non-phytotoxic solvent mixture which included a surfactant.
(§3) At the same time, these species were planted in pots containing Redi-Earth® planting medium (Scotts Company, 14111 Scottslawn Road, Marysville, Ohio 43041) comprising spaghnum peat moss, vermiculite, wetting agent and starter nutrients and treated with postemergence applications of the test chemicals formulated in the same manner. Plants ranged in height from 2 to 18 cm (1- to 4-leaf stage). Treated plants and controls were maintained in a controlled growth environment for 14 to 21 days after which time all species were compared to controls and visually evaluated. Plant response ratings, summarized in Table D, are based on a scale of 0 to 100 where 0 is no effect and 100 is complete control. A dash (-) response means no test result.

mustard, wild = assay: Test D preemergence; type: in vivo, Sinapis arvensis; conditions: Preemergence, scale 0 to 100
In short: as §1

field violet = assay: Test D postemergence; type: in vivo, Viola arvensis; conditions: scale 0 to 100
Source text: as §2, §3

oat, wild = assay: Test D preemergence; type: in vivo, Avena fatua; conditions: Preemergence, scale 0 to 100
In short: as §1

foxtail, green [2] = assay: Test D postemergence; type: in vivo, Setaria viridis; conditions: scale 0 to 100
Source text: as §2, §3

chamomile [3] = assay: Test D postemergence; type: in vivo, Matricaria inodora; conditions: scale 0 to 100
In short: as §1

chamomile [4] = assay: Test D preemergence; type: in vivo, Matricaria inodora; conditions: Preemergence, scale 0 to 100
In short: as §1

galium [5] = assay: Test D preemergence; type: in vivo, Galium aparine; conditions: Preemergence, scale 0 to 100
Source text: as §2, §3

speedwell = assay: Test D postemergence; type: in vivo, Veronica persica; conditions: scale 0 to 100
In short: as §1

kochia = assay: Test D preemergence; type: in vivo, Kochia scoparia; conditions: Preemergence, scale 0 to 100
In short: as §1

canarygrass = assay: Test D postemergence; type: in vivo, Phalaris minor; conditions: scale 0 to 100
Source text: as §2, §3

wheat, winter = assay: Test D preemergence; type: in vivo, Triticum aestivum; conditions: Preemergence, scale 0 to 100
In short: as §1

wheat, spring = assay: Test D preemergence; type: in vivo, Triticum aestivum; conditions: Preemergence, scale 0 to 100
In short: as §1

galium [6] = assay: Test D postemergence; type: in vivo, Galium aparine; conditions: scale 0 to 100
Source text: as §2, §3

lambsquarters = assay: Test D postemergence; type: in vivo, Chenopodium album; conditions: scale 0 to 100
In short: as §1

bluegrass = assay: Test D preemergence; type: in vivo, Poa annua; conditions: Preemergence, scale 0 to 100
In short: as §1

## CCCc1cc(C(=O)NC2CC2)nn1Cc1cc(C(F)(F)F)nn1C [Compound 202]
blackgrass; 31 g ai/ha
  Plant response rating, Blackgrass: 5
blackgrass; 62 g ai/ha
  Plant response rating, Blackgrass: 35
blackgrass; 125 g ai/ha
  Plant response rating, Blackgrass: 75
blackgrass; 250 g ai/ha
  Plant response rating, Blackgrass: 80
barley, winter; Postemergence, 31 g ai/ha
  Barley, Winter plant response rating: 15
barley, winter; Postemergence, 125 g ai/ha
  Barley, Winter plant response rating: 15
barley, winter; Postemergence, 250 g ai/ha
  Barley, Winter plant response rating: 25
barley, winter; postemergence, 62 g ai/ha
  Barley, Winter plant response rating: 15
barley, spring; Postemergence, 31 g ai/ha
  Barley, Spring plant response rating: 20
barley, spring; Postemergence, 125 g ai/ha
  Barley, Spring plant response rating: 25
barley, spring; Postemergence, 250 g ai/ha
  Barley, Spring plant response rating: 30
barley, spring; postemergence, 62 g ai/ha
  Barley, Spring plant response rating: 20
foxtail, green [1]; 62 g ai/ha
  Plant response rating, Foxtail, Green: 35
foxtail, green [1]; 125 g ai/ha
  Plant response rating, Foxtail, Green: 80
foxtail, green [1]; 250 g ai/ha
  Plant response rating, Foxtail, Green: 100
Oilseed rape; 62 g ai/ha
  Plant response rating, Oilseed Rape: 65
Oilseed rape; 125 g ai/ha
  Plant response rating, Oilseed Rape: 70
Oilseed rape; 250 g ai/ha
  Plant response rating, Oilseed Rape: 90
mustard, wild; 62 g ai/ha
  Plant response rating, Mustard, Wild: 100
mustard, wild; 125 g ai/ha
  Plant response rating, Mustard, Wild: 100
mustard, wild; 250 g ai/ha
  Plant response rating, Mustard, Wild: 100
Field violet; Postemergence, 31 g ai/ha
  Field Violet plant response rating: 25
Field violet; Postemergence, 125 g ai/ha
  Field Violet plant response rating: 45
Field violet; Postemergence, 250 g ai/ha
  Field Violet plant response rating: 50
Field violet; postemergence, 62 g ai/ha
  Field Violet plant response rating: 25
oat, wild; 62 g ai/ha
  Plant response rating, Oat, Wild: 15
oat, wild; 125 g ai/ha
  Plant response rating, Oat, Wild: 65
oat, wild; 250 g ai/ha
  Plant response rating, Oat, Wild: 100
foxtail, green [2]; Postemergence, 31 g ai/ha
  Foxtail, Green plant response rating: 20
foxtail, green [2]; Postemergence, 125 g ai/ha
  Foxtail, Green plant response rating: 20
foxtail, green [2]; Postemergence, 250 g ai/ha
  Foxtail, Green plant response rating: 30
foxtail, green [2]; postemergence, 62 g ai/ha
  Foxtail, Green plant response rating: 20
Chamomile [3]; Postemergence, 31 g ai/ha
  Chamomile plant response rating: 55
Chamomile [3]; Postemergence, 125 g ai/ha
  Chamomile plant response rating: 60
Chamomile [3]; Postemergence, 250 g ai/ha
  Chamomile plant response rating: 65
Chamomile [3]; postemergence, 62 g ai/ha
  Chamomile plant response rating: 55
Chamomile [4]; 31 g ai/ha
  Plant response rating, Chamomile: 5
Chamomile [4]; 62 g ai/ha
  Plant response rating, Chamomile: 100
Chamomile [4]; 125 g ai/ha
  Plant response rating, Chamomile: 100
Chamomile [4]; 250 g ai/ha
  Plant response rating, Chamomile: 100
Galium [5]; 62 g ai/ha
  Plant response rating, Galium: 35
Galium [5]; 125 g ai/ha
  Plant response rating, Galium: 70
Galium [5]; 250 g ai/ha
  Plant response rating, Galium: 100
speedwell; Postemergence, 31 g ai/ha
  Speedwell plant response rating: 70
speedwell; Postemergence, 125 g ai/ha
  Speedwell plant response rating: 75
speedwell; Postemergence, 250 g ai/ha
  Speedwell plant response rating: 100
speedwell; postemergence, 62 g ai/ha
  Speedwell plant response rating: 70
kochia; 62 g ai/ha
  Plant response rating, Kochia: 100
kochia; 125 g ai/ha
  Plant response rating, Kochia: 100
kochia; 250 g ai/ha
  Plant response rating, Kochia: 100
canarygrass; Postemergence, 31 g ai/ha
  Canarygrass plant response rating: 15
canarygrass; Postemergence, 125 g ai/ha
  Canarygrass plant response rating: 15
canarygrass; Postemergence, 250 g ai/ha
  Canarygrass plant response rating: 20
canarygrass; postemergence, 62 g ai/ha
  Canarygrass plant response rating: 15
wheat, winter; 62 g ai/ha
  Plant response rating, Wheat, Winter: 5
wheat, winter; 125 g ai/ha
  Plant response rating, Wheat, Winter: 25
wheat, winter; 250 g ai/ha
  Plant response rating, Wheat, Winter: 60
wheat, spring; 62 g ai/ha
  Plant response rating, Wheat, Spring: 0
wheat, spring; 125 g ai/ha
  Plant response rating, Wheat, Spring: 10
wheat, spring; 250 g ai/ha
  Plant response rating, Wheat, Spring: 25
Galium [6]; Postemergence, 31 g ai/ha
  Galium plant response rating: 70
Galium [6]; Postemergence, 125 g ai/ha
  Galium plant response rating: 70
Galium [6]; Postemergence, 250 g ai/ha
  Galium plant response rating: 75
Galium [6]; postemergence, 62 g ai/ha
  Galium plant response rating: 70
lambsquarters; Postemergence, 31 g ai/ha
  Lambsquarters plant response rating: 50
lambsquarters; Postemergence, 125 g ai/ha
  Lambsquarters plant response rating: 60
lambsquarters; Postemergence, 250 g ai/ha
  Lambsquarters plant response rating: 80
lambsquarters; postemergence, 62 g ai/ha
  Lambsquarters plant response rating: 50
bluegrass; 31 g ai/ha
  Plant response rating, Bluegrass: 10
bluegrass; 62 g ai/ha
  Plant response rating, Bluegrass: 5
bluegrass; 125 g ai/ha
  Plant response rating, Bluegrass: 50
bluegrass; 250 g ai/ha
  Plant response rating, Bluegrass: 80

From patent US20150105252A1, “SUBSTITUTED PYRAZOLES AS HERBICIDES” (E I DU PONT DE NEMOURS AND COMPANY, priority 2013, published 2015)
